In PubChem BioAssay AID248 (DTP/NCI, 2004):
Several values for one entry are separate records, joined by “and”; a condition that tells them apart may be missing. Equal values may be shown once. Toxic doses and inconclusive results are not listed.

Test system: L1210 leukemia ip in BDF1 mice, survival T/C
Assay: NCI In Vivo Anticancer Drug Screen. Data for tumor model L1210 Leukemia (intraperitoneal) in B6D2F1 (BDF1) mice
Conditions: endpoint: mean survival time, higher = longer survival
How it was run: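 Read-out is survival time, reported as the treated-group measurement over the vehicle-control measurement.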

[1] = dose: 50.0 mg/kg/injection, schedule: Q01DX001 (ip), vehicle: Klucel (hydroxypropylcellulose) (HPC)
[2] = dose: 100.0 mg/kg/injection, schedule: Q01DX001 (ip), vehicle: Klucel (hydroxypropylcellulose) (HPC)
[3] = dose: 200.0 mg/kg/injection, schedule: Q01DX001 (ip), vehicle: Klucel (hydroxypropylcellulose) (HPC)
[4] = dose: 50.0 mg/kg/injection, schedule: Q01DX009 (ip), vehicle: saline with Tween-80
[5] = dose: 100.0 mg/kg/injection, schedule: Q01DX009 (ip), vehicle: saline with Tween-80
[6] = dose: 200.0 mg/kg/injection, schedule: Q01DX009 (ip), vehicle: saline with Tween-80
[7] = dose: 100.0 mg/kg/injection, schedule: Q01DX001 (ip), vehicle: saline
[8] = dose: 200.0 mg/kg/injection, schedule: Q01DX001 (ip), vehicle: saline
[9] = dose: 400.0 mg/kg/injection, schedule: Q01DX001 (ip), vehicle: saline
[10] = dose: 12.5 mg/kg/injection, schedule: Q01DX009 (ip), vehicle: saline with Tween-80
[11] = dose: 25.0 mg/kg/injection, schedule: Q01DX009 (ip), vehicle: saline with Tween-80
[12] = dose: 100.0 mg/kg/injection, schedule: Q04DX003 (ip), vehicle: saline with Tween-80
[13] = dose: 200.0 mg/kg/injection, schedule: Q04DX003 (ip), vehicle: saline with Tween-80
[14] = dose: 400.0 mg/kg/injection, schedule: Q04DX003 (ip), vehicle: saline with Tween-80
[15] = dose: 25.0 mg/kg/injection, schedule: Q04DX003 (ip), vehicle: saline
[16] = dose: 50.0 mg/kg/injection, schedule: Q04DX003 (ip), vehicle: saline
[17] = dose: 100.0 mg/kg/injection, schedule: Q04DX003 (ip), vehicle: saline
[18] = dose: 100.0 mg/kg/injection, schedule: Q01DX009 (ip), vehicle: Klucel (hydroxypropylcellulose) (HPC)
[19] = dose: 100.0 mg/kg/injection, schedule: Q04DX003 (ip), vehicle: Klucel (hydroxypropylcellulose) (HPC)
[20] = dose: 200.0 mg/kg/injection, schedule: Q01DX009 (ip), vehicle: Klucel (hydroxypropylcellulose) (HPC)
[21] = dose: 200.0 mg/kg/injection, schedule: Q04DX003 (ip), vehicle: Klucel (hydroxypropylcellulose) (HPC)
[22] = dose: 400.0 mg/kg/injection, schedule: Q01DX009 (ip), vehicle: Klucel (hydroxypropylcellulose) (HPC)
[23] = dose: 400.0 mg/kg/injection, schedule: Q04DX003 (ip), vehicle: Klucel (hydroxypropylcellulose) (HPC)
[24] = dose: 100.0 mg/kg/injection, schedule: Q04DX002 (ip), vehicle: saline

BrC1(Br)C2C3C=CC4C(C=C3)C4C21 (configuration not stated)
T/C [1]: 105 % of control | T/C [2]: 103 % of control | T/C [3]: 108 % of control

COC(=O)c1oc2cc(Cl)cnc2c1C(=O)OC
T/C (dose: 100.0 mg/kg/injection, schedule: Q04DX002 (ip), vehicle: saline with Tween-80): 97 % of control | T/C (dose: 200.0 mg/kg/injection, schedule: Q04DX002 (ip), vehicle: saline with Tween-80): 97 % of control | T/C (dose: 400.0 mg/kg/injection, schedule: Q04DX002 (ip), vehicle: saline with Tween-80): 94 % of control

COc1cc(/C=N\NC(=O)CC#N)cc(OC)c1OC
T/C [4]: 87 % of control | T/C [5]: 87 % of control | T/C [6]: 94 % of control

COC1OC(COC(C)=O)C(OC(C)=O)C1OC(C)=O (configuration not stated)
T/C [7]: 102 % of control | T/C [8]: 104 % of control | T/C [9]: 93 % of control

Nc1nccc(NC(c2ccccc2)c2ccccc2)c1N
T/C (dose: 12.5 mg/kg/injection, schedule: Q01DX001 (ip), vehicle: other): 96 % of control | T/C (dose: 12.5 mg/kg/injection, schedule: Q01DX009 (ip), vehicle: DMSO): 95 % of control | T/C (dose: 12.5 mg/kg/injection, schedule: Q04DX003 (ip), vehicle: other): 96 % of control | T/C (dose: 25.0 mg/kg/injection, schedule: Q01DX001 (ip), vehicle: other): 96 % of control | T/C (dose: 25.0 mg/kg/injection, schedule: Q04DX003 (ip), vehicle: other): 96 % of control | T/C (dose: 50.0 mg/kg/injection, schedule: Q01DX001 (ip), vehicle: other): 98 % of control | T/C (dose: 50.0 mg/kg/injection, schedule: Q04DX003 (ip), vehicle: other): 89 % of control

O=S(=O)(Cl)CCCBr
T/C (dose: 100.0 mg/kg/injection, schedule: Q01DX009 (ip), vehicle: saline sonified): 93 % of control | T/C (dose: 200.0 mg/kg/injection, schedule: Q01DX009 (ip), vehicle: saline sonified): 86 % of control

COc1ccc2nc(N)sc2c1
T/C [10]: 96 % of control | T/C [11]: 89 % of control | T/C [4]: 97 % of control and 91 % of control | T/C (dose: 50.0 mg/kg/injection, schedule: Q04DX003 (ip), vehicle: saline with Tween-80): 107 % of control | T/C [12]: 112 % of control | T/C [13]: 93 % of control

O=C(COc1ccc(Cl)c(Cl)c1)Nc1cccnc1
T/C (dose: 75.0 mg/kg/injection, schedule: Q01DX009 (ip), vehicle: Klucel (hydroxypropylcellulose) (HPC)): 104 % of control | T/C (dose: 150.0 mg/kg/injection, schedule: Q01DX009 (ip), vehicle: Klucel (hydroxypropylcellulose) (HPC)): 96 % of control | T/C (dose: 300.0 mg/kg/injection, schedule: Q01DX009 (ip), vehicle: Klucel (hydroxypropylcellulose) (HPC)): 101 % of control

CCOC(=O)C(CC(C(=O)OCC)C(=O)c1ccccc1)C(=O)c1ccccc1 (configuration not stated)
T/C [7]: 92 % of control | T/C [8]: 90 % of control | T/C [9]: 97 % of control

S=c1nc(COc2ccccc2Cl)[nH][nH]1
T/C [4]: 106 % of control | T/C [5]: 100 % of control | T/C [12]: 98 % of control | T/C [6]: 97 % of control | T/C [13]: 102 % of control | T/C (dose: 400.0 mg/kg/injection, schedule: Q01DX009 (ip), vehicle: saline with Tween-80): 98 % of control | T/C [14]: 96 % of control

O=NN(CCCl)C(=O)NC1CCC(CCl)CC1 (configuration not stated)
T/C (dose: 8.0 mg/kg/injection, schedule: Q01DX001 (ip), vehicle: saline with Tween-80): 114 % of control | T/C (dose: 12.0 mg/kg/injection, schedule: Q01DX001 (ip), vehicle: saline with Tween-80): 181 % of control | T/C (dose: 18.0 mg/kg/injection, schedule: Q01DX001 (ip), vehicle: saline with Tween-80): 183 % of control | T/C (dose: 26.0 mg/kg/injection, schedule: Q01DX001 (ip), vehicle: saline with Tween-80): 320 % of control | T/C (dose: 40.0 mg/kg/injection, schedule: Q01DX001 (ip), vehicle: saline with Tween-80): 310 % of control | T/C (dose: 60.0 mg/kg/injection, schedule: Q01DX001 (ip), vehicle: saline with Tween-80): 372 % of control | T/C (dose: 90.0 mg/kg/injection, schedule: Q01DX001 (ip), vehicle: saline with Tween-80): 297 % of control | T/C (dose: 200.0 mg/kg/injection, schedule: Q01DX001 (ip), vehicle: saline with Tween-80): 187 % of control

CCOC(=O)Cn1c(=O)ssc1=O
T/C [15]: 100 % of control | T/C [16]: 100 % of control | T/C [17]: 100 % of control

CC1CCC(C(O)(C(=O)O)C2CCC(C)CC2)CC1 (configuration not stated)
T/C (dose: 75.0 mg/kg/injection, schedule: Q01DX001 (ip), vehicle: other): 104 % of control | T/C (dose: 150.0 mg/kg/injection, schedule: Q01DX001 (ip), vehicle: other): 104 % of control

COc1cccc(CNc2ccc(C)cc2C)c1OC
T/C [18]: 100 % of control | T/C [19]: 92 % of control | T/C [20]: 107 % of control | T/C [21]: 91 % of control | T/C [22]: 109 % of control | T/C [23]: 97 % of control

COc1cc(-c2nc3ccccc3c(=O)o2)cc(OC)c1OC
T/C [5]: 105 % of control | T/C [12]: 103 % of control | T/C [6]: 91 % of control | T/C [13]: 89 % of control | T/C [14]: 97 % of control

O=C(O)/C=C/Sc1ccccc1
T/C (dose: 25.0 mg/kg/injection, schedule: Q04DX003 (ip), vehicle: Klucel (hydroxypropylcellulose) (HPC)): 104 % of control | T/C (dose: 50.0 mg/kg/injection, schedule: Q04DX003 (ip), vehicle: Klucel (hydroxypropylcellulose) (HPC)): 102 % of control

NCCC(=O)NO
T/C [7]: 98 % of control | T/C [8]: 88 % of control | T/C [9]: 106 % of control

C=C(C)C1CCC2CC/C(=N\Nc3ccccc3C(=O)OC)C=C2C1 (configuration not stated)
T/C [19]: 90 % of control | T/C [21]: 94 % of control

Cc1ccc(N=Cc2ccccc2O)cc1
T/C [1]: 93 % of control | T/C [2]: 90 % of control | T/C [3]: 93 % of control

Cc1ccc(N=Nc2ccc(C)cc2NC(=O)Nc2cc([N+](=O)[O-])ccc2F)cc1
T/C [24]: 93 % of control | T/C (dose: 200.0 mg/kg/injection, schedule: Q04DX002 (ip), vehicle: saline): 108 % of control | T/C (dose: 400.0 mg/kg/injection, schedule: Q04DX002 (ip), vehicle: saline): 90 % of control

O=C(O)/C(=C\c1ccc(Cl)cc1)c1ccc(C(F)(F)F)cc1[N+](=O)[O-]
T/C [12]: 96 % of control | T/C [13]: 94 % of control | T/C [14]: 92 % of control

CCOC(=O)C(C(=O)OCC)C(CC(=O)c1ccccc1)c1ccccc1 (configuration not stated)
T/C [18]: 98 % of control | T/C [20]: 93 % of control | T/C [22]: 94 % of control

O=C(COc1ccc(Cl)c(Cl)c1)NCc1ccc[n+](Cc2ccc(Cl)c(S(=O)(=O)F)c2)c1
T/C [15]: 114 % of control | T/C [16]: 118 % of control | T/C [17]: 100 % of control and 112 % of control

CC(N)CC12CC3CC(CC(C3)C1)C2 (configuration not stated)
T/C (dose: 25.0 mg/kg/injection, schedule: Q04DX002 (ip), vehicle: saline): 92 % of control | T/C (dose: 50.0 mg/kg/injection, schedule: Q04DX002 (ip), vehicle: saline): 95 % of control | T/C [24]: 97 % of control

CC(=O)OCc1cc(=O)c(OC(C)=O)co1
T/C [19]: 112 % of control | T/C [21]: 96 % of control | T/C [23]: 98 % of control

COc1cccc(CNc2cccc([N+](=O)[O-])c2)c1OC
T/C [18]: 95 % of control | T/C [19]: 102 % of control | T/C [20]: 97 % of control | T/C [21]: 96 % of control | T/C [22]: 95 % of control | T/C [23]: 95 % of control

CCCOCCC(c1ccccc1)(c1ccccc1)c1ccccc1
T/C [10]: 98 % of control | T/C [11]: 98 % of control | T/C [4]: 95 % of control | T/C [6]: 87 % of control

ONc1ccccn1
T/C [7]: 95 % of control | T/C [8]: 95 % of control

CCOC(=O)C(C=O)(NC(=O)c1ccccc1)OCC (configuration not stated)
T/C [12]: 94 % of control | T/C [13]: 101 % of control | T/C [14]: 105 % of control
